Data published in US10085955B2, “Methods and compositions for treatment of demyelinating diseases” (Pathologica LLC, priority 2013, dated 2018).
Entries after “also recorded” stand apart in the source; their conditions may differ. Marks after values point to notes of the source that are not given here.

Legend:
[1] = test system: CNS-infiltrating cells; experiment: Second MOG EAE protocol, flow cytometric analysis of CNS-infiltrating cells; assay type: in vivo, C57BL/6 mice; conditions: second study
Experimental: A second EAE experiment was run substantially as disclosed above, except that fingolimod was dosed at 1 mpk QD, and the pertussis toxin was administered at 165 ng/dose for both injections.
In addition to clinical scoring, flow cytometric analysis was performed on CNS-infiltrating cells from 6 mice in each of the vehicle-, fingolimod- and MGBG-treated groups, as well as in all three mice from the mock-immunized (disease-free) group.
On Day 28, the brain and spinal cord tissue (from 6 of 12 mice from each of the MOG-immunized groups; and from all 3 mice from the mock-immunized group) in the second MOG EAE study were […] infiltrating cells were isolated by Percoll gradient. After isolating infiltrating cells from each mouse separately, cells were placed in culture with phorbol myristate acetate (PMA, 50 ng/mL), ionomycin (0.5 μg/mL) and brefeldin (1 μg/mL) and incubated for 4-5 hours. The cells were then washed and stained for flow cytometric analysis, as specified below. The following analyses were performed (Becton Dickinson FACScan):
Anti-CD4-Cy-5/anti-IL-17A-PE/anti-IFNγ-FITC (Th1/Th17 cells)
Anti-CD4-Cy-5/anti-CD11c-PE/anti-CD45.2-FITC (infiltrating dendritic cells)
Anti-CD11b-Cy-5/anti-IL-12-PE/anti-CD45.2-FITC (M1 macrophages)
Anti-CD11b-Cy-5/anti-CD206-PE/anti-IL-10-FITC (M2 macrophages)
The number of cells positive for relevant stains and stain combinations was computed both as a percentage of the analyzed cells and as the average number of cells per mouse for each group.

[2] = test system: CNS-infiltrating cells; experiment: Fourth MOG EAE protocol, flow cytometric analysis of CNS-infiltrating cells at onset and peak; assay type: in vivo, C57BL/6 mice
Experimental: A fourth EAE experiment was run similarly to the above, but was designed to examine the effect of MGBG on cell populations during onset and peak disease. In this protocol, there were 3 experimental groups with 20 mice/group and 1 mock-immunized group with 8 mice. Fingolimod was dosed at 1 mpk QD, MGBG at 30 mpk BID, and the pertussis toxin was administered at 165 ng/dose for both injections. Flow cytometric analysis was performed on CNS-infiltrating cells from 16 mice from each of the vehicle-, fingolimod- and MGBG-treated groups, as well as from all mice in the mock-immunized group. Half of the analyzed mice from each group were collected at the time of EAE onset in the vehicle group and half were collected at the time of EAE peak in the vehicle group. Mouse termination was over eight separate days, because individual mouse in the vehicle group reached EAE onset and EAE peak on different days. Eight (8) of the mice in the vehicle group were sacrificed at each time-point. For each of these mice, a matching mouse from each of Groups 2 and 3 was sacrificed on the same day. For each two (2) of these vehicle group mice, a matching mouse from Group 4 was sacrificed. When selecting matching mice from other groups for termination, the mouse with the highest EAE score was chosen. If no mouse in the group had signs of EAE, a mouse was chosen at random.

[3] = Day 28, raw numbers of cells, fingolimod 1 mg/kg QD, MGBG 30 mg/kg BID
[4] = Day 28, fingolimod 1 mg/kg QD, MGBG 30 mg/kg BID

`CC(/C=N/NC(=N)N)=N\NC(=N)N` [MGBG, 1,1′ [methylethanediylidene]dinitrilodiguanidine] was tested, and the “CD4+ IFNy+ cells” value [1, 3] was 20.40 +/− 10^3, the “CD4+ IL-17A+ cells” value [1, 3] was 23.55 +/− 10^3 and the “CD4+ cells” value [1, 3] was 152.11 +/− 10^3. For the same molecule, the “CD11b+ CD206+ cells” value [1, 3] was 1.92 +/− 10^3, the “CD11b+ IL10+ cells” value [1, 3] was 3.37 +/− 10^3 and the “CD11b+ cells” value [1, 3] was 137.88 +/− 10^3. For the same molecule, the “CD45.2 high CD4− CD11c+ cells” value [1, 3] was 11.90 +/− 10^3, the “CD45.2 high CD11b− IL12+ cells” value [1, 3] was 0.21 +/− 10^3 and the “IL12+ cells” value [1, 3] was 0.89 +/− 10^3. For the same molecule, the “# of IL12+ cells (10^3)” value [1, 4] was 0.89 +/− 10^3, the “% CD4+ IFNγ+ cells” value [1, 4] was 15.85% and the “% CD11c+ of CD45.2 high CD4− cells” value [1, 4] was 7.21%. The “% CD206+ of CD11b+ cells” value [1, 4] was 1.39%, the “% IL10+ of CD11b+ cells” value [1, 4] was 2.37% and the “% IL12+ of CD45.2 high CD11b− cells” value [1, 4] was 0.06%. For the same molecule, the “% IL-17A+ cells of CD4+ cells” value [1, 4] was 15.24%, the “% of CD4+ cells” value [1, 4] was 28.50% and the “% of CD11b+ cells” value [1, 4] was 27.86%. The “CNS CD11c+ dendritic cells” value ([1]; FIG. 8 A) was “reduces; also recorded: significantly reduced relative and absolute number”, the “IL12+ dendritic cells / IL-12-producing cells” value ([1]; FIG. 8 B) was “reduces; also recorded: significantly reduced number” and the Th1 ([1]; FIG. 9 A) was “reduces”. The M1 macrophages ([1]; FIG. 9 B) was “reduces”, the “CD4+ IFNy+” value ([2]; Onset) was 3.19 +/− # cells (10^3) and the “CD4+ IFNγ+” value ([2]; Onset) was 9.57 % cells. For the same molecule, the “CD4+ IL-17A+ IFNy+” value ([2]; Onset) was 1.56 +/− # cells (10^3), the “CD4+ IL-17A+ IFNγ+” value ([2]; Onset) was 4.14 % cells and the “CD4+ IFNy+” value ([2]; Peak) was 4.57 +/− # cells (10^3). The “CD4+ IFNγ+” value ([2]; Peak) was 9.37 % cells, the “CD4+ IL-17A+ IFNy+” value ([2]; Peak) was 3.01 +/− # cells (10^3) and the “CD4+ IL-17A+ IFNγ+” value ([2]; Peak) was 5.45 % cells. For the same molecule, the “CNS infiltration by proinflammatory cells” value ([2]; fourth study, MGBG 30 mpk BID) was “reduced”, the “proportion and number of infiltrating dendritic cells” value ([2]; fourth study, MGBG 30 mpk BID vs fingolimod 1 mpk QD) was “reduced in MGBG-treated mice more than in fingolimod-treated mice” and the “CD11c+ of CD4− CD45.2+ high cells In Peak of Disease in Animals Without EAE Disease” value ([2]; subset of animals which did not develop disease when vehicle-treated animals were at peak) was 2.93 +/− 0.37.
